# Test results published in paper PMC5046821 (Biochemistry, 2016).
# Target: Irp3 (Yersinia enterocolitica, UniProt O54512)
# Assay: X-ray crystallography, […] Å, cocrystal
# Format: binding
# Conditions: with NADP+; pH 7.3; active site, substrate analogue, occupancy 70-85%
smiles,measurement,value
"O=C(O)[C@@H]1CSC(c2csc(-c3ccccc3O)n2)=N1 [HPTT-COOH, 2′-(2-Hydroxyphenyl)-4,5-dihydro[2,4′-bisthiazole]-4-carboxylic Acid]","X-ray crystallography, 1.28 Å, cocrystal",A holo-Irp3 structure was determined with both HPTT-COOH and NADP^+ bound.
